{
  "source": "patent US20030235646A1",
  "about": "“Method for improving quality of meat by supplementing pig diets and concentrates used therefor” (Lonza Inc., priority 2002, published 2003)",
  "key": {"[1]": {"system": "pigs", "experiment": "Growth performance of pigs (Example 1)", "type": "in vivo", "conditions": "between 73.6 and 164 lb; P>0.64", "description": "(§1) One hundred twenty-six gilts (initially 73.6 lb, PIC C22×L326) were allotted by weight and ancestry in a randomized complete block design to each of the nine experimental treatments arranged in a 3×3 factorial arrangement. There were two pigs/pen and seven replicates/treatment. Pigs were housed in an environmentally controlled building with 4-ft×4-ft slatted-floor pens.\nL-carnitine (0, 25, or 50 ppm) was added to the diet from 73.6 lb until slaughter (approximately 240 lb). Paylean (a registered trademark of Eli Lilly Company for ractopamine) treatments (0, 4.5, or 9 g/ton) were fed for the last four weeks of the experiment. The basal diet was formulated to contain 1.10% lysine from 73.6 to 164 lb, and 1.00% lysine from 164 lb until the end of the experiment. These quantities of Paylean are equivalent to 0, 5, and 10 ppm of ractopamine in the feed, respectively.\nWeights were obtained on every pig and feed disappearance was recorded every fourteen days during the experiment until the last four weeks, at which time measurements were taken weekly to calculate ADG, ADFI, and feed efficiency (F/G). One pig (closest to 240 lb) per pen was selected and slaughtered at the Kansas State University Meat Laboratory. […]\nData were analyzed as a randomized complete block. […]"}, "[2]": {"system": "finishing pigs (longissimus muscle)", "experiment": "Carcass quality measures of finishing pigs fed Carnitine and Paylean (Example 1)", "type": "in vivo", "design": "key to L*: lightness: 100 = perfect white, 0 = absolute black; key to Firmness: score 1 = soft and watery, 5 = firm and dry; Hue angle / Drip loss: unit not given here", "conditions": "for Temperature: 45 minutes postmortem", "text": "Color is qualitatively measured using Minolta color-spectrometry, a process which evaluates the Hunter L* and a* values of the meat color, as well as by the saturation index and the Hue Angle value. Hunter L* value measures the lightness of the meat color and varies from 100 for perfect white to 0 for absolute black. Acceptable values for pork range from 35 to 55, with 40-45 values being most preferred by consumers.\nThe other Hunter value is related to the hue of the color of the meat, with increasing a* values indicating redness and decreasing a values indicating greenness. High quality pork has Hunter a* values which range from 7.5 to 12, and consumers prefer meat with 9-9.5 scores.\nHue Angle value measures the discoloration of meat. Increasing values indicate increasing discoloration of meat. Decreasing values indicate reduction of the discoloration. Acceptable pork Hue Angle values range from 48 to 54, and the preferred values range from 48-52.\nThe final spectrographic measurement is the saturation index, which is related to the strength of the color of the meat. Acceptable pork saturation index values range from 12 to 15.5, with values from 13-14.5 being preferred. The color of the meat is of particular importance in some export markets, such as Japan, Korea, Asia and South America. […] Acceptable marbling score ranges from 1 to 3, with 2.5 being preferred.\nDrip loss is a measurement of the ability of the sample to retain water. In this procedure, a standardized amount of lean pork muscle, i.e., a cubic centimeter, is weighed, then suspended in an airtight container from a hook for 24 hours. The difference in weight from beginning to end of the 24 hour period represents the amount of water loss or purge. The greater the amount of purge loss, the poorer the pork quality. Changes in the pH of pork associated with postmortem metabolism affect the isoelectric point of the various amino acids in protein, and thus can affect the protein's ability to bind water. Pork with high drip loss is termed in the industry as “exudative” which is undesirable to both meat producers and consumers.\nThe firmness of the meat is measured visually on the score from 1 to 5, 1 being soft and watery, 5 being firm and dry. The acceptable score is 2-4, and the preferred score is 2.5-3.5. This characteristic of pork has become important due to recent attempts to genetically improve the leanness of the meat. The desired leanness has been accompanied by a negative impact on the meat firmness. As a result, approximately 30% of the meat now going through packing houses has been categorized as PSE (Pale Soft Exudative meat) and is unacceptable to the consumer, thus causing economic loss to the meat producer according to the National Meat Producers Council. Thus, there is an urgent need in the art for means of improving the quality (firmness, color, marbling) and carcass characteristics of the pork.\nas §1\nPigs were fed a corn-soybean meal diet composed of the following:\nL-carnitine (0, 25, or 50 ppm) was added to the diet from 73.6 lb until slaughter (approximately 240 lb). Paylean (a registered trademark of Eli Lilly Company for ractopamine) treatments (0, 4.5, or 9 g/ton) were fed for the last four weeks of the experiment. The basal diet was formulated to contain 1.10% lysine from 73.6 to 164 lb, and 1.00% lysine from 164 lb until the end of the experiment. These quantities of Paylean are equivalent to 0, 5, and 10 ppm of ractopamine in the feed, respectively. […]"}, "[3]": {"conditions": "Paylean 0 g/ton, Carnitine 25 ppm"}, "[4]": {"conditions": "Paylean 0 g/ton, Carnitine 25 ppm, score 1 to 5"}, "[5]": {"conditions": "Paylean 0 g/ton, Carnitine 50 ppm"}, "[6]": {"conditions": "Paylean 0 g/ton, Carnitine 50 ppm, score 1 to 5"}, "[7]": {"conditions": "with 4.5 or 9 g/ton Paylean, but not control pigs"}, "[8]": {"conditions": "with increasing levels, linear, P<0.04"}},
  "data": [
    {"smiles": "C[N+](C)(C)C[C@H](O)CC(=O)[O-]", "note": "[Carnitine, L-carnitine]", "values": [
      {"measurement": "growth performance of pigs", "setting": "[1]", "result": "did not affect"},
      {"measurement": "Drip loss", "setting": "[2]; [3]", "result": 2.80},
      {"measurement": "Hue angle", "setting": "[2]; [3]", "result": 67.38},
      {"measurement": "L*", "setting": "[2]; [3]", "result": 58.01},
      {"measurement": "PH 45 m postmortem", "setting": "[2]; [3]", "result": 6.55},
      {"measurement": "PH 24 h postmortem", "setting": "[2]; [3]", "result": 5.79},
      {"measurement": "Saturation index", "setting": "[2]; [3]", "result": 15.89},
      {"measurement": "a*", "setting": "[2]; [3]", "result": 6.17},
      {"measurement": "a*/b*", "setting": "[2]; [3]", "result": 0.42},
      {"measurement": "b*", "setting": "[2]; [3]", "result": 14.61},
      {"measurement": "Temperature", "setting": "[2]; [3]", "result": 34.83, "unit": "°C"},
      {"measurement": "Firmness", "setting": "[2]; [4]", "result": 1.65},
      {"measurement": "Marbling", "setting": "[2]; [4]", "result": 1.71},
      {"measurement": "Visual color", "setting": "[2]; [4]", "result": 2.78},
      {"measurement": "Drip loss", "setting": "[2]; [5]", "result": 2.07},
      {"measurement": "Hue angle", "setting": "[2]; [5]", "result": 67.05},
      {"measurement": "L*", "setting": "[2]; [5]", "result": 56.80},
      {"measurement": "PH 45 m postmortem", "setting": "[2]; [5]", "result": 6.46},
      {"measurement": "PH 24 h postmortem", "setting": "[2]; [5]", "result": 5.76},
      {"measurement": "Saturation index", "setting": "[2]; [5]", "result": 16.44},
      {"measurement": "a*", "setting": "[2]; [5]", "result": 6.45},
      {"measurement": "a*/b*", "setting": "[2]; [5]", "result": 0.43},
      {"measurement": "b*", "setting": "[2]; [5]", "result": 15.10},
      {"measurement": "Temperature", "setting": "[2]; [5]", "result": 32.98, "unit": "°C"},
      {"measurement": "Firmness", "setting": "[2]; [6]", "result": 1.93},
      {"measurement": "Marbling", "setting": "[2]; [6]", "result": 1.85},
      {"measurement": "Visual color", "setting": "[2]; [6]", "result": 3.14},
      {"measurement": "visual color scores", "setting": "[2]; in control pigs", "result": "did not improve"},
      {"measurement": "L* values", "setting": "[2]; increasing levels, fed with 4.5 or 9 g/ton of Paylean, longissimus muscle at 10th rib", "result": "lower L* values"},
      {"measurement": "color, marbling, L*, a*/b* ratio and hue angle", "setting": "[2]; supplementing finishing pig diets", "result": "positively improve"},
      {"measurement": "Visual color", "setting": "[2]; when 4.5 or 9 g/ton of Paylean was fed", "result": "did improve"},
      {"measurement": "Hue angle values", "setting": "[2]; [7]", "result": "lower"},
      {"measurement": "a*/b* values", "setting": "[2]; [7]", "result": "lower"},
      {"measurement": "Drip loss measured 48 hours postmortem", "setting": "[2]; [8]", "result": "decreased"},
      {"measurement": "temperature at 45 minutes postmortem", "setting": "[2]; [8]", "result": "decreased"},
      {"measurement": "Ultimate (24-h) pH", "setting": "[2]; with increasing levels, linear, P<0.07", "result": "increased"},
      {"measurement": "Measurements of b*", "setting": "[2]; with increasing levels, quadratic, P<0.05", "result": "decreased"},
      {"measurement": "saturation index measured on the longissimus muscle", "setting": "[2]; with increasing levels, quadratic, P<0.07", "result": "tended to decrease"}
    ]}
  ]
}
